Laboratory results as given in US20220339143A1, “TAK-925 FOR USE IN TREATING NARCOLEPSY” (Takeda Pharmaceutical Company Limited, priority 2019, published 2022).
Like-named read-outs stand apart in the source and are kept apart here.

Experiment: Single dose PK in healthy subjects (Cohorts 1, 2, S1 and S2), plasma
Assay type: in vivo, human
Conditions: human, plasma, intravenous
Protocol: This study investigates (i) the safety and tolerability of Compound A (methyl (2R,3S)-3-((methylsulfonyl)amino)-2-(((cis-4-phenylcyclohexyl)oxy)methyl)piperidine-1-carboxylate) when a single dose given as a 9 hour continuous IV infusion is administered to healthy adults, healthy elderly subjects and patients with narcolepsy type 1 (NT1); (ii) the pharmacokinetics of Compound A when a single dose given as a 9 hour continuous IV infusion is administered to healthy adults, healthy elderly subjects and patients with narcolepsy type 1; and (iii) the pharmacodynamics (PD) effects of Compound A, primarily by evaluation of the sleep latency on MWT when a single dose given as a 9 hour continuous IV infusion is administered to patients with narcolepsy type 1.
Pharmacokinetics: Concentrations of Compound A in plasma, and CSF, and pharmacokinetics parameters.
On average, the time to reach the plateau appeared to be approximately 3 to 4 hours after the start of infusion. […] After switching off the IV infusion, Compound A plasma concentrations declined rapidly and in a biphasic manner with a mean terminal disposition phase t1/2z ranging approximately from 3.4 to 5.1 hours across all doses. […] Table 5 provides a summary of plasma concentrations of Compound A after a single IV infusion in healthy subjects. Table 6 provides a summary of pharmacokinetic parameters of Compound A after a single IV infusion in healthy subjects.

[1] = 7 mg, read-out: Plasma concentration, Q1
[2] = 7 mg, read-out: Plasma concentration, Q3
[3] = 7 mg, read-out: Plasma concentration, Maximum
[4] = 7 mg, read-out: Plasma concentration, Mean
[5] = 7 mg, read-out: Plasma concentration, Median
[6] = 7 mg, read-out: Plasma concentration, Minimum
[7] = 14 mg, read-out: Plasma concentration, Maximum
[8] = 14 mg, read-out: Plasma concentration, Mean
[9] = 14 mg, read-out: Plasma concentration, Median
[10] = 14 mg, read-out: Plasma concentration, Minimum
[11] = 14 mg, read-out: Plasma concentration, Q1
[12] = 14 mg, read-out: Plasma concentration, Q3
[13] = 28 mg, read-out: Plasma concentration, Maximum
[14] = 28 mg, read-out: Plasma concentration, Mean
[15] = 28 mg, read-out: Plasma concentration, Median
[16] = 28 mg, read-out: Plasma concentration, Minimum
[17] = 28 mg, read-out: Plasma concentration, Q1
[18] = 28 mg, read-out: Plasma concentration, Q3
[19] = 56 mg, read-out: Plasma concentration, Maximum
[20] = 56 mg, read-out: Plasma concentration, Mean
[21] = 56 mg, read-out: Plasma concentration, Median
[22] = 56 mg, read-out: Plasma concentration, Minimum
[23] = 56 mg, read-out: Plasma concentration, Q1
[24] = 56 mg, read-out: Plasma concentration, Q3
[25] = 112 mg, read-out: Plasma concentration, Maximum
[26] = 112 mg, read-out: Plasma concentration, Mean
[27] = 112 mg, read-out: Plasma concentration, Median
[28] = 112 mg, read-out: Plasma concentration, Minimum
[29] = 112 mg, read-out: Plasma concentration, Q1
[30] = 112 mg, read-out: Plasma concentration, Q3

## COC(=O)N1CCC[C@H](NS(C)(=O)=O)[C@@H]1CO[C@H]1CC[C@@H](c2ccccc2)CC1 [Compound A, methyl (2R,3S)-3-((methylsulfonyl)amino)-2-(((cis-4-phenylcyclohexyl)oxy)methyl)piperidine-1-carboxylate]
[1]
  concentration at 3 hr: 15.1 ng/mL
  concentration at 4 hr: 15.2 ng/mL
  concentration at 6 hr: 11.4 ng/mL
  concentration at 8 hr: 12.8 ng/mL
  concentration at 9 hr: 13.2 ng/mL
[2]
  concentration at 3 h: 18.8 ng/mL
  concentration at 4 h: 17.6 ng/mL
  concentration at 6 h: 12.5 ng/mL
  concentration at 8 h: 13.4 ng/mL
  concentration at 9 h: 15 ng/mL
[3]
  concentration at 4 h: 20.6 ng/mL
  concentration at 6 h: 15.9 ng/mL
  concentration at 8 h: 16.1 ng/mL
  concentration at 9 h: 15.2 ng/mL
[4]
  concentration at 4 h: 15.9 ng/mL
  concentration at 6 h: 12.2 ng/mL
  concentration at 8 h: 13 ng/mL
  concentration at 9 h: 13.5 ng/mL
[5]
  concentration at 4 h: 15.5 ng/mL
  concentration at 6 h: 12.4 ng/mL
  concentration at 8 h: 13.1 ng/mL
  concentration at 9 h: 13.9 ng/mL
[6]
  concentration at 4 h: 11.1 ng/mL
  concentration at 6 h: 8.82 ng/mL
  concentration at 8 h: 9.5 ng/mL
  concentration at 9 h: 10.2 ng/mL
[7]
  concentration at 0.5 h: 27.2 ng/mL
  concentration at 1 h: 32.1 ng/mL
  concentration at 1.5 h: 36.1 ng/mL
  concentration at 2 h: 37.8 ng/mL
  concentration at 3 h: 43.5 ng/mL
  concentration at 4 h: 40.4 ng/mL
  concentration at 6 h: 35.2 ng/mL
  concentration at 8 h: 34.4 ng/mL
  concentration at 9 h: 34.2 ng/mL
[8]
  concentration at 0.5 h: 22.5 ng/mL
  concentration at 1 h: 26.6 ng/mL
  concentration at 1.5 h: 30.4 ng/mL
  concentration at 2 h: 32.9 ng/mL
  concentration at 3 h: 35.8 ng/mL
  concentration at 4 h: 36.4 ng/mL
  concentration at 6 h: 29.3 ng/mL
  concentration at 8 h: 28.9 ng/mL
  concentration at 9 h: 30.1 ng/mL
[9]
  concentration at 0.5 h: 22.1 ng/mL
  concentration at 1 h: 26.9 ng/mL
  concentration at 1.5 h: 29 ng/mL
  concentration at 2 h: 32 ng/mL
  concentration at 3 h: 34.3 ng/mL
  concentration at 4 h: 37 ng/mL
  concentration at 6 h: 29.7 ng/mL
  concentration at 8 h: 29.9 ng/mL
  concentration at 9 h: 30.8 ng/mL
[10]
  concentration at 0.5 h: 18 ng/mL
  concentration at 1 h: 21.8 ng/mL
  concentration at 1.5 h: 27.4 ng/mL
  concentration at 2 h: 29.6 ng/mL
  concentration at 3 h: 31.8 ng/mL
  concentration at 4 h: 31 ng/mL
  concentration at 6 h: 23.1 ng/mL
  concentration at 8 h: 22.6 ng/mL
  concentration at 9 h: 22.8 ng/mL
[11]
  concentration at 0.5 h: 21.7 ng/mL
  concentration at 1 h: 22.6 ng/mL
  concentration at 1.5 h: 27.6 ng/mL
  concentration at 2 h: 30 ng/mL
  concentration at 3 h: 32.1 ng/mL
  concentration at 4 h: 33 ng/mL
  concentration at 6 h: 23.9 ng/mL
  concentration at 8 h: 24.6 ng/mL
  concentration at 9 h: 28.4 ng/mL
[12]
  concentration at 0.5 h: 23.9 ng/mL
  concentration at 1 h: 29.7 ng/mL
  concentration at 1.5 h: 33.6 ng/mL
  concentration at 2 h: 35.8 ng/mL
  concentration at 3 h: 39 ng/mL
  concentration at 4 h: 40 ng/mL
  concentration at 6 h: 34.4 ng/mL
  concentration at 8 h: 32.3 ng/mL
  concentration at 9 h: 33.5 ng/mL
[13]
  concentration at 0.5 h: 48.7 ng/mL
  concentration at 1 h: 51.8 ng/mL
  concentration at 1.5 h: 55.9 ng/mL
  concentration at 2 h: 58.4 ng/mL
  concentration at 3 h: 65.2 ng/mL
  concentration at 4 hr: 63.1 ng/mL
  concentration at 6 hr: 51.7 ng/mL
  concentration at 8 hr: 58.8 ng/mL
  concentration at 9 hr: 58.3 ng/mL
[14]
  concentration at 0.5 hr: 34.4 ng/mL
  concentration at 1 hr: 37.9 ng/mL
  concentration at 1.5 hr: 44.9 ng/mL
  concentration at 2 hr: 50.1 ng/mL
  concentration at 3 hr: 55 ng/mL
  concentration at 4 h: 55 ng/mL
  concentration at 6 hr: 46.8 ng/mL
  concentration at 8 hr: 48.7 ng/mL
  concentration at 9 hr: 52.5 ng/mL
[15]
  concentration at 0.5 hr: 32 ng/mL
  concentration at 1 hr: 36.6 ng/mL
  concentration at 1.5 h: 47.1 ng/mL
  concentration at 2 h: 54.9 ng/mL
  concentration at 3 h: 59.3 ng/mL
  concentration at 4 hr: 54.5 ng/mL
  concentration at 6 hr: 48 ng/mL
  concentration at 8 hr: 51.7 ng/mL
  concentration at 9 hr: 55.3 ng/mL
[16]
  concentration at 0.5 hr: 19.1 ng/mL
  concentration at 1 hr: 21.7 ng/mL
  concentration at 1.5 hr: 27.2 ng/mL
  concentration at 2 hr: 33.7 ng/mL
  concentration at 3 hr: 35.6 ng/mL
  concentration at 4 hr: 44.4 ng/mL
  concentration at 6 hr: 40.2 ng/mL
  concentration at 8 hr: 37.1 ng/mL
  concentration at 9 hr: 40.6 ng/mL
[17]
  concentration at 0.5 hr: 29.6 ng/mL
  concentration at 1 hr: 36.5 ng/mL
  concentration at 1.5 hr: 44.4 ng/mL
  concentration at 2 hr: 45.5 ng/mL
  concentration at 3 hr: 51.3 ng/mL
  concentration at 4 hr: 54.2 ng/mL
  concentration at 6 hr: 45.4 ng/mL
  concentration at 8 hr: 43.3 ng/mL
  concentration at 9 hr: 51 ng/mL
[18]
  concentration at 0.5 h: 42.6 ng/mL
  concentration at 1 h: 42.8 ng/mL
  concentration at 1.5 h: 49.9 ng/mL
  concentration at 2 h: 57.8 ng/mL
  concentration at 3 h: 63.7 ng/mL
  concentration at 4 hr: 58.8 ng/mL
  concentration at 6 hr: 48.8 ng/mL
  concentration at 8 hr: 52.5 ng/mL
  concentration at 9 hr: 57.4 ng/mL
[19]
  concentration at 0.5 h: 80.3 ng/mL
  concentration at 1 h: 91.5 ng/mL
  concentration at 1.5 h: 116 ng/mL
  concentration at 2 h: 114 ng/mL
  concentration at 3 h: 133 ng/mL
  concentration at 4 h: 144 ng/mL
  concentration at 6 h: 119 ng/mL
  concentration at 8 h: 133 ng/mL
  concentration at 9 h: 138 ng/mL
[20]
  concentration at 0.5 h: 71.2 ng/mL
  concentration at 1 h: 81.2 ng/mL
  concentration at 1.5 h: 92.8 ng/mL
  concentration at 2 h: 99.5 ng/mL
  concentration at 3 h: 114 ng/mL
  concentration at 4 hr: 118 ng/mL
  concentration at 6 hr: 91.8 ng/mL
  concentration at 8 hr: 102 ng/mL
  concentration at 9 hr: 115 ng/mL
[21]
  concentration at 0.5 h: 70.7 ng/mL
  concentration at 1 h: 79 ng/mL
  concentration at 1.5 h: 90.2 ng/mL
  concentration at 2 h: 99 ng/mL
  concentration at 3 h: 112 ng/mL
  concentration at 4 h: 113 ng/mL
  concentration at 6 h: 90.8 ng/mL
  concentration at 8 h: 99.7 ng/mL
  concentration at 9 h: 112 ng/mL
[22]
  concentration at 0.5 h: 64.4 ng/mL
  concentration at 1 h: 74.8 ng/mL
  concentration at 1.5 h: 75.5 ng/mL
  concentration at 2 h: 86.5 ng/mL
  concentration at 3 h: 98.3 ng/mL
  concentration at 4 hr: 107 ng/mL
  concentration at 6 hr: 73.5 ng/mL
  concentration at 8 hr: 84.9 ng/mL
  concentration at 9 hr: 102 ng/mL
[23]
  concentration at 0.5 h: 65 ng/mL
  concentration at 1 h: 76.2 ng/mL
  concentration at 1.5 h: 88.8 ng/mL
  concentration at 2 h: 88.8 ng/mL
  concentration at 3 h: 98.6 ng/mL
  concentration at 4 hr: 109 ng/mL
  concentration at 6 h: 73.8 ng/mL
  concentration at 8 h: 87.2 ng/mL
  concentration at 9 h: 104 ng/mL
[24]
  concentration at 0.5 h: 75.9 ng/mL
  concentration at 1 h: 86.3 ng/mL
  concentration at 1.5 h: 96.1 ng/mL
  concentration at 2 h: 110 ng/mL
  concentration at 3 h: 131 ng/mL
  concentration at 4 h: 120 ng/mL
  concentration at 6 h: 103 ng/mL
  concentration at 8 h: 108 ng/mL
  concentration at 9 h: 122 ng/mL
[25]
  concentration at 0.5 h: 174 ng/mL
  concentration at 1 h: 172 ng/mL
  concentration at 1.5 h: 255 ng/mL
[26]
  concentration at 0.5 h: 132 ng/mL
  concentration at 1 h: 154 ng/mL
  concentration at 1.5 h: 194 ng/mL
[27]
  concentration at 0.5 h: 122 ng/mL
  concentration at 1 h: 162 ng/mL
[28]
  concentration at 0.5 h: 108 ng/mL
  concentration at 1 h: 126 ng/mL
[29]
  concentration at 0.5 h: 119 ng/mL
  concentration at 1 h: 131 ng/mL
[30]
  concentration at 0.5 h: 149 ng/mL
  concentration at 1 h: 169 ng/mL
